For orientation: solubility (kinetic) means solubility judged after dilution from a stock solution rather than from solid.

In brackets after ≈: the same amount, converted by molar mass.

The values below come from PubChem BioAssay AID1996.

For this series the following is noted: buffer; pH 7.4; 200.0 µM.
In turn, `CC(C)CN=CC1=C(O)c2ccccc2C1=O` had a solubility (kinetic) of 29.5 µg/mL (≈ 129 µM).
In turn, `O=C(Cc1ccccc1)NCC(=O)Nc1cccc(Cl)c1` had a solubility (kinetic) of 10 µg/mL (≈ 33 µM).
For `CC(NC(=O)c1ccc(S(=O)(=O)C(F)F)cc1)c1ccccc1` (configuration not stated) the value was above 50.9 µg/mL; for `O=C(Cc1c(Cl)cccc1Cl)NC1CC1`, above 36.6 µg/mL.
As for `O=C(C1Cc2ccccc2CN1S(=O)(=O)c1ccccc1[N+](=O)[O-])N1CCOCC1` (configuration not stated), the figure is 63.7 µg/mL (≈ 148 µM); as for `Cc1c(Br)ccc(NC(=O)COc2ccccc2C(N)=O)c1C`, below 0.4 µg/mL.
The compound `CN(CC(=O)Nc1cccc(F)c1)C(=O)c1ccc(N2CCOCC2)c([N+](=O)[O-])c1` returned a kinetic solubility of 33.7 µg/mL (≈ 80.9 µM).
In turn, `Cc1nc(C)c(-c2csc(Nc3ncccc3C)n2)s1` came in with a solubility (kinetic) below 0.2 µg/mL.
As for `CC(C)OCCCNC(=O)Cc1ccc(F)cc1`, the figure is above 38 µg/mL.
Consider `S=C(NCc1ccccc1)Nc1ccncc1`, for which the solubility (kinetic) came out at 30 µg/mL (≈ 123 µM).
As for `N/C(=N/OC(=O)c1cccc([N+](=O)[O-])c1)c1cccc([N+](=O)[O-])c1`, the figure is 0.5 µg/mL (≈ 1.51 µM); as for `CCc1nonc1NC(=O)c1oc2ccc(Cl)cc2c1C`, below 0.2 µg/mL.
With `O=C(CC1CCCCC1)NCc1ccco1`, the kinetic solubility is above 33.2 µg/mL.
In turn, `CS(=O)(=O)c1ccc(C(=O)OC2CCOC2=O)cc1[N+](=O)[O-]` (configuration not stated) returned a kinetic solubility above 49.4 µg/mL.
For `COc1ccc(-c2cc(C(=O)Nc3ccc(F)cc3F)no2)cc1` the value was below 0.4 µg/mL; for `COc1ccc(C2c3ccc(O)cc3Oc3ncn(CCCO)c(=N)c32)cc1` (configuration not stated), above 56.9 µg/mL.
As for `COc1ccc(C(=O)OCC(=O)NCc2ccc3c(c2)OCO3)cc1S(=O)(=O)N1CCOCC1`, the figure is 12.2 µg/mL (≈ 24.8 µM); as for `S=C1NCN(Cc2cccnc2)CN1c1cccc2ccccc12`, above 50.2 µg/mL.
Compound `COc1ccc(OC)c(S(=O)(=O)N2CCNCC2)c1` displayed a solubility (kinetic) of 38.1 µg/mL (≈ 133 µM).
For `CCOc1ccccc1OC(=O)CN1C(=O)c2ccccc2C1=O` the value was 16.2 µg/mL (≈ 49.8 µM); for `COc1ccc(CC(=O)NCc2nc(-c3ccccc3)no2)cc1`, 13.4 µg/mL (≈ 41.4 µM); for `CN1CCOCCOc2ccccc2OCCOCC1`, above 42.2 µg/mL.
For `CCOc1ccc(NC(=O)CNC(=O)c2ccco2)cc1` the value was above 43.2 µg/mL; for `C=CCNC(=S)N1CCc2c([nH]c3ccccc23)C1C` (configuration not stated), 27.7 µg/mL (≈ 97.1 µM).
For `O=C(COC(=O)c1cccs1)Nc1cccc(S(=O)(=O)N2CCCCC2)c1`, the solubility (kinetic) amounted to 9.6 µg/mL (≈ 23.5 µM).
As for `COc1ccc(OCCNC(=O)c2ccccc2Cl)cc1`, the figure is above 45.9 µg/mL.
In the case of `CN(C)S(=O)(=O)c1cccc(NC(=O)NCCCl)c1`, the solubility (kinetic) is above 45.9 µg/mL.
For `Cc1ccc(-c2ccc(CCC(=O)O)n2-c2cccc(C(=O)O)c2)cc1` the value was 50.4 µg/mL (≈ 144 µM); for `CCOC(=O)c1c[nH]c(=S)n1C`, above 27.9 µg/mL.
Turning to `COc1ccc(-c2cc(C(F)(F)F)c(C#N)c(SCC(=O)O)n2)cc1`, the solubility (kinetic) amounted to 53.6 µg/mL (≈ 146 µM).
As for `O=C(COC(=O)CNC(=O)C1CCCCC1)Nc1ccc(F)c([N+](=O)[O-])c1`, the figure is above 57.2 µg/mL; as for `COc1ccc(CC(=O)Nc2cc(C)ccc2O)cc1OC`, above 45.2 µg/mL; as for `O=C1CCC(=O)N1CC(=O)N1CCCc2ccccc21`, 28.5 µg/mL (≈ 105 µM).
`Nc1nc(SCC(=O)O)[nH]c(=O)c1NC(=O)c1ccco1` had a kinetic solubility above 46.5 µg/mL.
`Nc1cccc(-n2cccc2)c1` registered a kinetic solubility of 18.2 µg/mL (≈ 115 µM).
As for `Cc1ccc(S(=O)(=O)Nc2ccc3c(c2)OCCO3)cc1`, the figure is 42.3 µg/mL (≈ 139 µM).
For the compound `CN1c2ccsc2C(=O)/C(=C\Nc2cccc(C(F)(F)F)c2)S1(=O)=O`, the solubility (kinetic) was below 0.4 µg/mL.
For `Cc1nn(C)c(Sc2ccccn2)c1[N+](=O)[O-]` the value was above 37.5 µg/mL.
As for `CCCCC(=O)N/C(N)=N/c1nc2ccccc2o1`, the figure is 0.7 µg/mL (≈ 2.69 µM); as for `O=C(CSCc1ccc(Cl)cc1)NCCSCc1ccco1`, 36.3 µg/mL (≈ 102 µM).
As for `O=P(Nc1ccccc1)(Oc1ccccc1)Oc1ccccc1`, the figure is below 0.7 µg/mL.
The compound `Cc1cccc(NC(=S)N(CCN(C)C)C(C)c2cccnc2)c1` (configuration not stated) gave a kinetic solubility above 51.4 µg/mL.
For `CCOc1ccc2c(c1)[nH]c(=S)n2C` the value was above 31.2 µg/mL.
`O=C(CCNC(=O)c1ccc([N+](=O)[O-])cc1)NCCc1ccccc1`: the solubility (kinetic) is 13.8 µg/mL (≈ 40.4 µM).
As for `CCN(CC)CCCNC(=O)Cn1ccc2ccccc2c1=O`, the figure is above 47.3 µg/mL.
For the compound `Cc1ccc(C(=O)c2coc3ccc(O)c(CN(C)C)c23)cc1.Cl`, the solubility (kinetic) is 48 µg/mL.
Consider `CC(C)CC(=O)NC(c1ccccc1)c1c(O)ccc2ccccc12` (configuration not stated), for which the solubility (kinetic) was below 0.7 µg/mL.
On to `CCCN(CCO)C1CCN(CCc2ccccc2)CC1`, for which the kinetic solubility was determined as 27.4 µg/mL (≈ 94.3 µM).
`CC(C)(C)c1ccc(C(=O)C2CCCN(C3CCC3)C2)cc1` (configuration not stated): the solubility (kinetic) worked out at 37.9 µg/mL (≈ 127 µM).
`CN(C)/C=N/S(=O)(=O)c1ccc(Cl)cc1` displayed a kinetic solubility of 35.8 µg/mL (≈ 145 µM).
As for `NCCNC[C@@H]1COC2(CCCCCCCCCCC2)O1`, the figure is 32.7 µg/mL (≈ 110 µM); as for `Cc1ccc2sc(N(CCN(C)C)C(=O)c3ccc4ccccc4c3)nc2c1C.Cl`, 0.8 µg/mL.
